Here are results for two molecules from patent US6387909B1, “Thienopyranecarboxamide derivatives” (Recordati S.A. Chemical and Pharmaceutical Company, priority 1999, dated 2002).

Each structure is given as a SMILES string.

Broadly, the Ki is a dissociation constant, usually derived from enzyme kinetics or from competition with a known ligand.

One experiment addresses T1, α1L adrenoceptor (Oryctolagus cuniculus, UniProt O02824).
T1 sequence (O02824 1-466): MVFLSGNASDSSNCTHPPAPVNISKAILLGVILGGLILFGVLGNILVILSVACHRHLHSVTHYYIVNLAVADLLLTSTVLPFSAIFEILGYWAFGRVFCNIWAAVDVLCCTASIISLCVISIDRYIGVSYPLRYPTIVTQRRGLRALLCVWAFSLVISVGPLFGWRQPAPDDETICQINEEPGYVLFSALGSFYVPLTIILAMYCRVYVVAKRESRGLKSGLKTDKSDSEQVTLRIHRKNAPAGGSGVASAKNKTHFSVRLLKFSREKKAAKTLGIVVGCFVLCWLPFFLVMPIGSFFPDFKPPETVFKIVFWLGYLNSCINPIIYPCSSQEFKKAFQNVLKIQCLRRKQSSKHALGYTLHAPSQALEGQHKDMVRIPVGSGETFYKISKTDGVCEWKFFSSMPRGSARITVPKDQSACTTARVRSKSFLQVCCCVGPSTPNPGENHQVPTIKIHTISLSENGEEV
Nature of the experiment: Functional antagonism of noradrenaline-induced contractions of rabbit aorta pretreated with chloroethylclonidine. Conditions: NA-induced contractions. The class given is biochemical. The method, then: Adult male New Zealand rabbits were sacrificed by cervical dislocation. The aorta was removed, placed in Krebs-Henseleit buffer and dissected free of adhering tissue. […] Desmethylimipramine (0.1 μM) and corticosterone (1 μM) to block neuronal and extraneuronal uptake of NA, (±)-propranol (1 μM) to block β adrenoceptors and yohimbine (0.1 μM) to block α2 adrenoceptors were added to the buffer.
The preparations were equilibrated for 60 minutes and then primed every 30 minutes with 10 μM NA for three times. The aortic rings were then incubated with the alkylating agent chloroethylclonidine (50 μM) for 30 minutes and then washed extensively three times, over a 30 min period before constructing the NA-concentration/response curve. Following washing, tissue was re-equilibrated for 45 min. Test drug was added and after 30 minutes, a second cumulative-NA-concentration/response curve was constructed. Each antagonist concentration was tested using 2-3 aortic rings from different rabbits.
Dose ratios (i.e., the ratio between the concentrations of noradrenaline required to produce half-maximal response in the presence and in the absence of the test antagonist) were calculated at each concentration of the compounds. The logarithm of these dose ratio −1 was plotted against the logarithm of the compound concentrations (Schild plot) to evaluate the affinity constant Kb.
When only one or two concentrations of the test compounds were utilised, the apparent Kb value was calculated using the formula: Kb=[B]/(DOSE RATIO-1), where B is the antagonist concentration.

Another experiment relates to diastolic blood pressure. Nature of the experiment: Blood pressure in anaesthetized dogs after intravenous administration. The class given is in vivo. The following applies: dog, i.v. As for the experimental part: The experiments were performed according to the method of Imagawa et al. (J. Pharmacol. Methods, 22:103-111, 1989), with substantial modifications, as follows: adult male beagle dogs, weighing 8-10 kg, were anaesthetized with pentobarbital sodium (30 mg/kg i.v. and 2 mg/kg/h i.v.), intubated and spontaneously ventilated with room air. In order to monitor systemic blood pressure (BP), a polyethylene (PE) catheter was introduced into the aortic arch through the left femoral artery. A collateral of the left femoral vein was cannulated for infusion of anaesthetic, and the right femoral vein was cannulated for administration of compounds. For intraarterial (i.a.) injection of noradrenaline (NA), a PE catheter was introduced into the lower portion of the abdominal aorta via the right external iliac artery. Through such procedure, NA was selectively distributed to the lower urinary tract. A paramedian vertical suprapubic incision extending from the base of the pelvis to the mid-abdominal region was made and the bladder and the prostate were exposed. The bladder was manually emptied with a syringe. Prostatic urethral pressure was monitored with a Mikro-tip catheter (5F) introduced into the bladder via the external urethral meatus, and withdrawn until the pressure transducer was positioned in the prostatic region of the urethra. A ligature was secured between the neck of the bladder and urethra to isolate the response of the latter and to avoid any interaction with the bladder. Another ligature was put around the Mikro-tip catheter at the external meatus, to secure the catheter itself.
After a stabilizing period following the surgical procedure (30 minutes), in which arterial and prostatic urethral pressures were continuously monitored as basal values, i.a. administration of NA was made at intervals of 20 minutes.
The NA doses were chosen to produce an increase of at least 100% in urethral pressure. The test compounds were administered intravenously in a cumulative manner with intervals of 15-20 minutes between administrations. […]

The target of experiment [1] is T2, human 5-HT1A-serotoninergic receptor (Homo sapiens, UniProt P08908).
T2 construct: expressed in transfected cells; host or cells: HeLa
T2 sequence (P08908 1-422): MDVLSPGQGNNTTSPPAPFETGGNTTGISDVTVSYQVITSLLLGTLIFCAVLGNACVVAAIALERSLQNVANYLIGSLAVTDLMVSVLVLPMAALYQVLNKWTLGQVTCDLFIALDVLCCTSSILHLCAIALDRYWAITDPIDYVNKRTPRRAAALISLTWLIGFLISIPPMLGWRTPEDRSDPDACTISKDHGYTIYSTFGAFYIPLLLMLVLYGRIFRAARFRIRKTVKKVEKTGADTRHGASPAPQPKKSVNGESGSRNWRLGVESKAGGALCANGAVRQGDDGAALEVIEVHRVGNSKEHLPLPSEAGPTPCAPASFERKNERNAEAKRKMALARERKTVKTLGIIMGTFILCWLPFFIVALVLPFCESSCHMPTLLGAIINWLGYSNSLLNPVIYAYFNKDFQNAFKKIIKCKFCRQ
Nature of the experiment: Radioligand binding ([3H]8-OH-DPAT) to cloned 5-HT1A receptor in HeLa cell membranes. The following applies: read-out: Affinity (Ki) 5-HT1A. The method, then:
HeLa cells were grown as monolayers in Dulbecco's modified Eagle's medium (DMEM), supplemented with 10% fetal calf serum and gentamicin (100 μg/mL), at 37° C. in 5% CO2. The cells were detached from the growth flask at 95% confluence by a cell scraper and were lysed in a buffer containing ice cold 5 mM Tris, 5 mM EDTA (pH 7.4). The homogenates were centrifuged at 40,000×g for 20 minutes and the membranes were resuspended in a small volume of ice-cold buffer containing 5 mM Tris and 5 mM, EDTA (pH 7.4), and immediately frozen and stored at −70° C. until use.
Non-specific binding was determined in the presence of 10 μM 5-HT. Incubation was stopped by addition of ice-cold Tris buffer and rapid filtration through Schleicher & Schuell GF52 filters that had been pretreated with 0.2%-polyethyleneimine.
Data were expressed as mean of Ki.

Regarding `COc1ccccc1N1CCN(CCCNC(=O)c2csc3c(=O)cc(-c4ccccc4)oc23)CC1` [Example 2, N-{3-[4-(2-Methoxyphenyl)-1-piperazinyl]propyl}-7-oxo-5-phenyl-7H-thieno[3,2-b]pyran-3-carboxamide], the “pKb, functional affinity for the α1L adrenoceptor subtype” value on α1L adrenoceptor came to 8.85. The “DBP ED25 (dose inducing a 25% decrease in diastolic blood pressure)” value in the experiment on diastolic blood pressure came out at 0.0355 mg/kg. For the same molecule, in experiment [1], the inhibition constant Ki amounted to 4.48 nM.
For `O=C(NCCCN1CCN(c2ccccc2OCC(F)(F)F)CC1)c1csc2c(=O)cc(-c3ccccc3)oc12` [Example 5, 7-Oxo-5-phenyl-N-{3-[4-[2-(2,2,2-trifluoroethoxy)phenyl]-1-piperazinyl]propyl}-7H-thieno[3,2-b]pyran-3-carboxamide], in that order: 9.12, greater than 1 mg/kg and 7.59 nM.
